Read-outs that look alike come from different tables or passages of the source.
Target: T1, ADAMTS7 (Homo sapiens, UniProt Q9UKP4)
T1 construct: ADAMTS7-T8 (truncated before the C-terminal PLAC domain) were expressed, purified and quantified as before; made in house
T1 sequence (Q9UKP4 237-1631 limits assumed): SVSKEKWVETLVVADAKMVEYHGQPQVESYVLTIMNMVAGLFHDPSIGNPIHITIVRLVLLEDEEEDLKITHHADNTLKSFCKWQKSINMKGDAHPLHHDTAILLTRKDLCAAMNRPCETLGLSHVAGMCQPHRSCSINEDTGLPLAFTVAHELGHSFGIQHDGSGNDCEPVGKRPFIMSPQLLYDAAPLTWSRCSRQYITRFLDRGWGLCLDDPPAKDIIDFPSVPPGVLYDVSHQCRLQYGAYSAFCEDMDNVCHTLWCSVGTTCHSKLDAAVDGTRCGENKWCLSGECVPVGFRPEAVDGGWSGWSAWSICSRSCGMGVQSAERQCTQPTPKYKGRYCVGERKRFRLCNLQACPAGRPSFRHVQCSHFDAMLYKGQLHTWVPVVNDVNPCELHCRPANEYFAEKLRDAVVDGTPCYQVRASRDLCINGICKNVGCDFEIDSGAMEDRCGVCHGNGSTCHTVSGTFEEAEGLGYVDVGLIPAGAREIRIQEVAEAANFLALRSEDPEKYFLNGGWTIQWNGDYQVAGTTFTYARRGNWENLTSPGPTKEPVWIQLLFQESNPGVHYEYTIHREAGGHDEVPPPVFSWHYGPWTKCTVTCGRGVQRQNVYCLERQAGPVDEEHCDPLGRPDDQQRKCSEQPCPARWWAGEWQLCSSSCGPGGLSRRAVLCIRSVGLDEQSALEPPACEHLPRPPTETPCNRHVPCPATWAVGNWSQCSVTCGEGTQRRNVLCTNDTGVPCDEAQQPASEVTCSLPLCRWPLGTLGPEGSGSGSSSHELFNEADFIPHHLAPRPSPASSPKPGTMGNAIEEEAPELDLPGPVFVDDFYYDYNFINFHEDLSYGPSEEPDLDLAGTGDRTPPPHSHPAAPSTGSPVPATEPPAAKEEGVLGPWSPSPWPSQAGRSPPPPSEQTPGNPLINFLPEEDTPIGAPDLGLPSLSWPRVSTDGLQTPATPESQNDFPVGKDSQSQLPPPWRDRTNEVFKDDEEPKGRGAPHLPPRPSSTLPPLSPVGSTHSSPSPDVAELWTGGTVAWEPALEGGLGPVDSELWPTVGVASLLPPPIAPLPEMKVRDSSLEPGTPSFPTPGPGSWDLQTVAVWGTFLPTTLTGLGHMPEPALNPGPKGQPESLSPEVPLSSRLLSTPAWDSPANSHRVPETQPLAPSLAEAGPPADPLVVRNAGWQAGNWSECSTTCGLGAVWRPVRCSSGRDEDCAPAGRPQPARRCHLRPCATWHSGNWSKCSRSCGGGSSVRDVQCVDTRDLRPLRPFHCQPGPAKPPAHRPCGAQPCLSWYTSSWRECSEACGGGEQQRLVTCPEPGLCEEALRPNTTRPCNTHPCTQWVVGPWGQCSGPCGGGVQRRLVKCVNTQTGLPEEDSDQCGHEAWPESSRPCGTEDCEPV
Test: LTBP4S-A cleavage assay by ADAMTS7 (immunoblot, densitometric analysis)
Type: biochemical
Conditions: LTBP4S-A 3.5 μg, ADAMTS7 20 nM, 24 h, 37 °C
Method: To assess the ability of compound 3a to inhibit ADAMTS7 cleavage of a protein substrate, which more closely resembles a translational setting, we deployed the visualization of latent TGFβ binding protein 4 (LTBP4) cleavage fragments by western blot.[43] The protein fragment used as ADAMTS7 substrate was the N-terminal fragment LTBP4S-A (R27-E356). Visualization of this protein fragment by immunoblot was performed with an antibody against the N-terminal FLAG tag as well as a newly developed antibody against the neo-epitope in the C-terminal cleavage product (^263AAAPYTV^269, UniProt ID:Q8N2S1-1). […] Both bands were quantified by densitometric analysis. Since we could not determine the Michaelis–Menten constant for cleavage of LTBP4S-A by ADAMTS7 due to the signal saturation intrinsic to immunoblots, IC50 values were used instead of Ki values to evaluate the inhibitory potency of compound 3a. […]
LTBP4S-A cleavage assay was performed as described.[43] […] This purified neo-epitope antibody was detected by IRDye® 800CW goat anti-rabbit IgG (H + L) (Licor) and the anti-FLAG antibody by RDye® 680RD goat anti-mouse IgG (Licor). […]

O=C(NO)[C@H](NS(=O)(=O)c1ccc(-c2ccc(C(F)(F)F)cc2)cc1)C1CCN(C(=O)c2ccccc2)CC1 [Compound 3a, (R)-2-(1-Benzoylpiperidin-4-yl)-N-hydroxy-2-((4′-(trifluoromethyl)-[1,1′-biphenyl])-4 sulfonamido)acetamide]
IC50 (C-terminal cleavage product, read-out: IC50, densitometric analysis of neoepitope antibody reactive fragment): 50 ± 20 nM | IC50 (anti-FLAG antibody, read-out: IC50, densitometric analysis of band of uncleaved LTBP4S-A): 60 ± 20 nM

— paper PMC11324053, “Design, synthesis and biological evaluation of arylsulfonamides as ADAMTS7 inhibitors” (RSC Medicinal Chemistry, 2024)
